Reference: patent US5547856A, “Hepatocyte growth factor variants” (Genentech, Inc., priority 1993, dated 1996)
“Also recorded” adds a separate entry of the source.

How the values were obtained:
[1] = test system: rat hepatocytes in primary culture; assay: Mitogenic assay: induction of DNA synthesis (3H-TdR incorporation) of rat hepatocytes in primary culture; type: cell-based; settings: for SA +/- mut/wt: Table 3, alterations near or within the hairpin domain; for SA +/- mut/wt / SA mut/wt +/- SD / SA var/SA wt +/-S.D.: * = did not reach the same absolute level as wild-type huHGF; for SA mut/wt +/- SD: Table 2, specific mitogenic activity relative to wt rhuHGF; for residual SA compared to WT rhuHGF: % of WT rhuHGF specific activity; for SA var/SA wt +/-S.D.: Table 1, specific mitogenic activity of variant relative to WT rhuHGF, at least three independent assays
Experimental: The biological activity of WT huHGF and variants was measured by their abilities to induce DNA synthesis of rat hepatocytes in primary culture. […] Briefly, the livers of female Sprague Dawley rats (160-180 g) were perfused through the portal vein with 100 mL of Ca^++ free Hepes buffered saline containing 0.02% Collagenase type IV (Sigma). After 20 minutes the liver was removed, placed in buffer, gently stirred to separate hepatocytes from connective tissue and blood vessels, and filtered through nylon mesh. Cells were then washed by centrifugation, resuspended at 1×10^5 cells/mL in Williams Media E (Gibco) containing Penicillin (100 U/ml), Streptomycin ([…]), L-Glutamine (2 mM), trace elements (0.01%), transfertin ([…]) and Aprotinin ([…]). […] After 48 hours incubation at 37° C., 0.5 mCi 3H-TdR (15 Ci/mmole, Amersham) was added to each well and incubated for an additional 16 hours. Cells were harvested on filter papers, which were washed, dried and counted in a Beckman counter after addition of scintillation liquid. For each huHGF variant, the specific activity (SA) expressed in units/mg was calculated at half-maximal proliferation (defined as 1 unit/mL) using the HGF concentration obtained in ELISA.

[2] = target: extracellular domain of the human HGF receptor (huHGFr) fused to the Fc constant region of an human IgG; assay: Soluble HGF receptor competitive binding assay (displacement of 125I-rhuHGF); settings: for Kdwt/mut: Table 2, Kd ratio wild type/mutant; for Kdwt/Kdvar +/-S.D.: Table 1, receptor binding capacity relative to WT rhuHGF, at least three independent assays; for receptor binding / Kd (in words): compared to WT rhuHGF; for Kd: binding to HGF receptor:IgG fusion protein, calculated at the IC50 from fitted inhibition curves
Experimental: The coding sequence of the extracellular domain of the huHGFr was fused to those of the human IgGl heavy chain in a two-step process. […] The 5' primer (located in the vector upstream of the HeFr coding sequences) and the 3' primer (5'-[…]-3') (SEQ. ID. NO: 21) were used in a 100 μl reaction as described above except that the extension time at 72° C. was 3 minutes, and 40 ng of the full length HGFr expression vector was used as template. […] Sequencing of the construct was carried out as described above.
The binding assay was performed in breakable microtiter plates (Nunc) coated o/n at 4° C. with […] of rabbit-anti-human IgG Fc specific antibody (Jackson Immunoresearch) and plates were carefully washed with PBS containing 0.05% Tween 20 (Biorad). […] To each well […] of serial dilutions (1:25-1:6000) of cell supernatants, purified CHO-expressed rhuHGF ([…]) or medium were added in duplicates. Subsequently, […] of 50 pM of HGF receptor:IgG fusion protein were added and the plates were incubated with gentle shaking. After 4 hours, when equilibrium was reached, plates were washed and wells were individually counted in a gamma-counter. The amount of nonspecifically bound radioactivity was estimated by incubating HGF receptor:IgG with a 500-fold excess of unlabelled rhuHGF.

[3] = test system: 145 kDa β-subunit of the HGF receptor in A549 cells; assay: Induction of tyrosine phosphorylation of the HGF receptor on A549 cells (Western blot); type: cell-based, human; settings: serum-starved A549 cells, 200 ng/mL purified protein, 5 minutes
Experimental: FIG. 4: Western blot of ligand-induced tyrosine-phosphorylation on the 145 kDa β-subunit of the HGF receptor by wild-type rhuHGF, single-chain or protease domain huHGF variants. […] Molecular masses (kilodaltons) are as indicated.
Serum-starved cells were incubated without or with 200 ng/mL rhuHGF for 5 minutes at 37° C. and extracted with lysis buffer containing 50 mM Hepes, 150 mM NaCl, 1.5 mM MgCl2, 1 mM EGTA, 10% Glycerol, 1% Triton X-100 and a cocktail of protease inhibitors. The lysates were immunoprecipitated with anti-Met COOH antibodies and blotted with anti-phosphotyrosine antibodies (see Western blotting above).

[4] = test system: cell surface receptor on hepatocytes; settings: Higuchi and Nakamura 1991; cited from earlier work

Kdwt/mut [2] | Substance | SA +/- mut/wt [1] | SA mut/wt +/- SD [1] | further results
 | D54A: huHGF variant with alteration near or within the hairpin domain | 0.13 +/- 0.01 |  | 
 | D117A: huHGF variant with alteration near or within the hairpin domain | 0.02 |  | 
 | E115A: huHGF variant with alteration near or within the hairpin domain | 0.20 +/- 0.02 |  | 
< 0.03 | E159A: huHGF Kringle 1 domain substitution variant |  | < 0.02 | 
0.05 +/- 0.02 | F162A, L163A, S165A, S166A: huHGF Kringle 1 domain substitution variant |  | < 0.02 | 
0.05 +/- 0.01 | F162A: huHGF Kringle 1 domain substitution variant |  | 0.04 +/- 0.02 | 
 | H114A, E115A, D117A: huHGF variant with alterations near or within the hairpin domain | < 0.02 |  | 
 | H114A: huHGF variant with alteration near or within the hairpin domain | 0.16 +/- 0.04 |  | 
 | K34A, R35A, R36A: huHGF variant with alterations near or within the hairpin domain | 0.71 +/- 0.33 |  | 
 | K52A, D54A: huHGF variant with alterations near or within the hairpin domain | 0.32 +/- 0.03 |  | 
 | K52A: huHGF variant with alteration near or within the hairpin domain | 0.19 +/- 0.03 |  | 
 | K58A, K60A, K62A, K63A, N65A: huHGF variant with alterations near or within the hairpin domain | 6.96 +/- 0.12 |  | 
 | K109A, K110A, E111A: huHGF variant with alterations near or within the hairpin domain | 0.98 +/- 0.04 |  | 
0.98 +/- 0.04 | K137A: huHGF Kringle 1 domain substitution variant |  | 1.12 +/- 0.10 | 
1.03 +/- 0.08 | K144A, K148A: huHGF Kringle 1 domain substitution variant |  | 0.93 +/- 0.16 | 
1.10 +/- 0.04 | L163A, S165A, S166A: huHGF Kringle 1 domain substitution variant |  | 0.14 +/- 0.08 | 
 | N72A, R76A, N77A, K78A: huHGF variant with alterations near or within the hairpin domain | 0.04 +/- 0.07 |  | 
< 0.04 | N193A, E195A, R197A: huHGF Kringle 1 domain substitution variant |  | < 0.02 | 

Kdwt/mut [2] | Substance | SA +/- mut/wt [1] | SA mut/wt +/- SD [1] | further results
0.62 +/- 0.20 | N193A: huHGF Kringle 1 domain substitution variant |  | 0.45 +/- 0.12 | 
0.21 +/- 0.03 | Q173A, E174A, N175A: huHGF Kringle 1 domain substitution variant |  | 0.33 +/- 0.07 | 
0.15 +/- 0.05 | Q173A: huHGF Kringle 1 domain substitution variant |  | 0.13 +/- 0.03 | 
 | Q534H, Y673S, V692S: huHGF protease domain triple variant |  |  | Kdwt/Kdvar +/-S.D. [2]: 1.91 +/- 1.28; receptor binding / Kd (in words) [2]: not significantly different from WT rhuHGF; residual SA compared to WT rhuHGF [1]: less than 3%; SA var/SA wt +/-S.D. [1]: < 0.02
 | Q534H, Y673S: huHGF protease domain double variant |  |  | Kdwt/Kdvar +/-S.D. [2]: 2.24 +/- 1.11; receptor binding / Kd (in words) [2]: not significantly different from WT rhuHGF; residual SA compared to WT rhuHGF [1]: less than 3%; SA var/SA wt +/-S.D. [1]: < 0.03
 | Q534H: huHGF protease domain variant, Q534 replaced with H |  |  | Kdwt/Kdvar +/-S.D. [2]: 1.48 +/- 0.85; Kd [2]: 0.06 nM; SA var/SA wt +/-S.D. [1]: 1.19 +/- 0.44
 | R126A, N127A: huHGF variant with alterations near or within the hairpin domain | 0.33 +/- 0.14 |  | 
0.98 +/- 0.04 | R168A: huHGF Kringle 1 domain substitution variant |  | 0.83 +/- 0.07 | 
0.95 +/- 0.04 | R181A, E183A, E184A: huHGF Kringle 1 domain substitution variant |  | 0.92 +/- 0.08 | 
< 0.03 | R197A: huHGF Kringle 1 domain substitution variant |  | < 0.01 | 
 | R494E |  |  | Kdwt/Kdvar +/-S.D. [2]: 0.31 +/- 0.13; SA var/SA wt +/-S.D. [1]: < 0.02; tyrosine phosphorylation of the HGF receptor (in words) [3]: reduced ability to induce phosphorylation of the HGF receptor; also recorded: not efficient in stimulating tyrosine-phosphorylation in A549 cells
 | V692S: huHGF protease domain variant, V692 replaced with S |  |  | Kdwt/Kdvar +/-S.D. [2]: 1.02 +/- 0.13; receptor binding / Kd (in words) [2]: Kd similar to WT rhuHGF; fold reduction of SA compared to wt rhuHGF [1]: ~10 fold; maximum plateau of mitogenic response [1]: approximately 50 % of wt rhuHGF plateau; SA var/SA wt +/-S.D. [1]: 0.08 +/- 0.04
0.77 | Y198A: huHGF Kringle 1 domain substitution variant |  | 0.88 +/- 0.06 | 
 | Y673S, V692S |  |  | Kdwt/Kdvar +/-S.D. [2]: 1.76 +/- 0.63; receptor binding / Kd (in words) [2]: not significantly different from WT rhuHGF; residual SA compared to WT rhuHGF [1]: less than 3%; SA var/SA wt +/-S.D. [1]: < 0.02; tyrosine phosphorylation of the HGF receptor (in words) [3]: reduced ability to induce phosphorylation of the HGF receptor; also recorded: not efficient in stimulating tyrosine-phosphorylation in A549 cells
 | Y673S: huHGF protease domain variant, Y673 replaced with S |  |  | Kdwt/Kdvar +/-S.D. [2]: 1.35 +/- 0.72; receptor binding / Kd (in words) [2]: Kd similar to WT rhuHGF; fold reduction of SA compared to wt rhuHGF [1]: approximately 5 fold; maximum plateau of mitogenic response [1]: approximately 50 % of wt rhuHGF plateau; SA var/SA wt +/-S.D. [1]: 0.27 +/- 0.07
 | huHGF: human hepatocyte growth factor as studied in the literature for binding to hepatocytes |  |  | Kd [4]: 0.024 to 0.032 nM
1 | wt rhuHGF: wild-type recombinant human hepatocyte growth factor, 728 amino acid form (Miyazawa et al. 1989) [reference compound] | 1 | 1 | Kd [2]: 0.07 nM; Kd ([2]; listed as WT rhuHGF): 0.05 to 0.07 nM; tyrosine phosphorylation of the HGF receptor (in words) [3]: led to the phosphorylation on tyrosine of the 145 kDa β-subunit of the HGF receptor
